One test relates to human Aβ1–42. Kind of test: ELISA, soluble Aβ1–42 in HC and CTX. The test is classed as in vivo, human Aβ1–42 in APP/PS1 transgenic mice. The following applies: APP/PS1 mice; 5 mg∙kg^−1 i.p., six months. As for the experimental part:
(§1) For this study, three-month-old male and female WT and APP/PS1 mice (n = 37) were used. Four groups were defined: WT-vehicle (physiological saline) (male n = 4; female n = 6), WT-P33 (male n = 6; female n = 5), APP/PS1-vehicle (male n = 3; female n = 5), and APP/PS1-P33 (male n = 6; female n = 2). Animals were subjected to intraperitoneal (i.p.) injections of P33 (5 mg∙kg^−1) for five days per week, over a course of six months. The mice were kept in groups under constant temperature (23 ± 0.5 °C), lighting (12-h/12-h light/dark cycle, lights on at 7:00 a.m.), and humidity (~50%). Standard mouse chow and tap water were supplied ad libitum. All behavioral experiments were performed in the light period. Handling was done daily at the same time.
Nine-month-old mice (three animals per group) were euthanized via cervical dislocation. […] To quantify the level of Aβ in the mice, we used a sandwich ELISA Kit (Innotest Amyloid-[…]) from Innogenetics (Gent, Belgium), following the instructions of the manufacturer. The absorbance values were measured at 450 nm on a 96-well plate reader (NOVOstar OPTIMA, BMG Labtech, Offenburg, Germany).
The results of spine density and immunohistochemistry experiments were calculated with one-way ANOVA followed by Fisher’s LSD post hoc tests. […] Data were analyzed with SPSS (IBM SPSS Statistics 24), and were expressed as the mean ± standard error of the mean (SEM). […]
In general terms: ELISA stands for enzyme-linked immunosorbent assay.

A further test has as its system Aβ plaques. Description: 4G8 immunohistochemistry, Aβ plaque density. The test is classed as in vivo, mouse. The following applies: HC and CTX; 5 mg∙kg^−1 i.p., six months; five animals per group. The method, then: as §1
Mice (five animals per group) were anaesthetized with chloral-hydrate (1 mg∙kg^−1) and perfused transcardially with PBS, followed by ice-cold 4% paraformaldehyde. The brains were removed, post-fixed in the same fixative, and immersed in a 30% sucrose solution containing 0.01% sodium-azide. […]
Slides were scanned by a digital slide scanner (Mirax Midi, 3DHistech Ltd., Budapest, Hungary), equipped with a Pannoramic Viewer 1.15.4, CaseViewer 2.1 program and a QuantCenter, HistoQuant module (3DHistech Ltd., Budapest, Hungary). For quantification, all of the sections were analyzed. […] Antibody-positive cell types from the ROIs were counted and quantified. […]

The values that follow come from PMC6627374, “Effects of the Pentapeptide P33 on Memory and Synaptic Plasticity in APP/PS1 Transgenic Mice: A Novel Mechanism Presenting the Protein Fe65 as a Target” (International Journal of Molecular Sciences, 2019).

The structures appear in SMILES notation. Where a SMILES comes first, the peptide text is derived from it.

On to `C[C@@H](N)C(=O)N1CCC[C@@H]1C(=O)N[C@H](C)C(=O)N1CCC[C@@H]1C(=O)N[C@H](CCC(=O)O)C(N)=O` [P33] (HELM PEPTIDE1{[dA].[dP].[dA].[dP].[dE].[am]}$$$$V2.0), for which the “soluble Aβ1–42, effect of P33 (in words)” value in the test on human Aβ1–42 was “decreased level of Aβ1–42 in the APP/PS1 mice”. The “Aβ plaque density, effect of P33 (in words)” value with Aβ plaques is recorded as “significantly decreased the plaque density in APP/PS1-P33 mice”.
